In EP1457483A1, “Cationic lipids with serine backbone” (Ruhr-Universität Bochum, priority 2003, dated 2004):

System: COS-7 cells
Experiment: Automated lipofection screening: GFP-luciferase reporter gene transfer (luciferase activity per protein content)
Type: cell-based, African green monkey
Conditions: pEGFPLuc plasmid, point is thousands separator; for Maximum transfection efficiency, MW (mean value), Helper lipid: DOPE: cationic/helper lipid 1:0.5 with DOPE; for Maximum transfection efficiency, MW (mean value), Helper lipid: DOPE / Maximum transfection efficiency, MW (mean value), Helper lipid: CHOL: at the LDR giving the maximum; for Maximum transfection efficiency, MW (mean value), Helper lipid: CHOL: cationic/helper lipid 1:0.5 with cholesterol; for Maximum transfection efficiency, MW (mean value), Helper lipid: without: no helper lipid, at the LDR (1:1-15:1) giving the maximum
Method: Screening the combinatorial lipid library for lipofection properties: Goal of this first step was to compare transfection efficiency of these structurally related cationic lipids with systematically modified hydrocarbon chain compositions for the development of suitable lipofection reagents and protocols and to study the relationship between structure and transfection efficiency of this new class of cationic lipids for gene transfer. All lipids (MS-1 to MS-50, table 1) were tested using a standard protocol: From each lipid, twenty four different lipoplexes were formed containing either no helper lipid or the helper lipids DOPE and CHOL at molar amounts (1:0.5), respectively, using eight different lipid:DNA-charge ratios (LDR) from 1:1 - 15:1, resulting in a lipofection profile for each lipid. The COS-7 cell-line was used for this lipofection study since COS-7 is easy to transfect and differences between the lipids are easy to identify.
Cell culture: SV40 transformed African green monkey kidney cell line COS-7 (ATCC CRL-1651) was routinely passaged in DMEM (GIBCO BRL, Karlsruhe, Germany), respectively, supplemented with 1% L-glutamin solution (100x), 1% Penicillin/Streptomycin solution (100x) (GIBCO BRL, Karlsruhe, Germany), and 10% FCS (BioWhittaker, Verviers, Belgium) at 37°C with 5% CO2 in humidified atmosphere. For the screening cells were maintained in 96-well culture plates (Greiner, Frickenhausen, Germany) in 100 µl DMEM, 10 % FCS, 1 % Penicillin-streptomycin in a humidified atmosphere at 37 °C/5 % CO2. 24 h prior to transfection, the cells were seeded into the microtiter plate at 10,000 cells per well to reach a confluency of 50 % at the time of transfection. Dendritic cells: Dendritic cells (DC) were derived from highly purified circulating CD14(+) monocytes: In a first step, peripheral blood mononuclear leukocytes (PBL) from healthy control persons were isolated by Ficoll-Paque (Pharmacia Biotech AB, Uppsala, Sweden) density centrifugation. The following immunomagnetic purification of the monocytes from PBL was performed using CD14 Microbeads and MiniMACS high gradient magnetic separation columns (Miltenyi Biotech, Bergisch Gladbach, Germany) according to manufacturer's instructions. Isolated monocytes (5 x 10^5/well) were cultured in RPMI supplemented with 10 % FCS, or serum-free Macrophage-SFM medium (GIBCO BRL, Karlsruhe, Germany) supplemented with human recombinant GM-CSF (0.05µg/ml) and IL-4 (0.025µg/ml) (PromoCell, Heidelberg, Germany) in 6-well plates. Aliquots of the cells were reanalyzed by FACS with anti-CD14 mAbs (Pharmingen, San Diego, CA). After 5-6 days non-adherent cells were collected and purity of DCs was determined by FACS analysis using a FACSort flow cytometer (Becton Dickinson, Mountain View, CA) and the CellQuest software for data processing as recently described (Jantscheff, P. et al., J. Immunol. Methods 163(1):91-7 (1993)).

Row | SMILES | Maximum transfection efficiency, MW (mean value), Helper lipid: DOPE [RLU] | Maximum transfection efficiency, MW (mean value), Helper lipid: CHOL [RLU] | Maximum transfection efficiency, MW (mean value), Helper lipid: without [RLU]
1 | CCCCCCCCCCCCCCCCCCN(CCCCCCCCCCCCCCCCCC)[C@@H](CO)C(=O)NCCCCCCN [compound 24] | 21.009 | 20.328 | 920
2 | CCCCCCCCCCCCCCN(CCCCCCCCCCCCCC)[C@@H](CO)C(=O)NCCCCCN [compound 17] | 453.572 | 237.556 | 249.143
3 | CCCCCCCC/C=C\CCCCCCCC[N+](C)(CCCCCCCC/C=C\CCCCCCCC)[C@@H](CO)C(=O)NCCCCCN [compound 45] | 69.821 | 64.111 | 14.092
4 | CCCCCCCCCCCCCCN(CCCCCCCCCCCCCC)[C@@H](CO)C(=O)NCCCN [compound 7] | 131.970 | 464.342 | 217.062
5 | CCCCCCCC/C=C\CCCCCCCCN(CCCCCCCC/C=C\CCCCCCCC)[C@@H](CO)C(=O)NCCCCN [compound 15] | 340.414 | 243.273 | 232.694
6 | CCCCCCCCCCCCCCCCN(CCCCCCCCCCCCCCCC)[C@@H](CO)C(=O)NCCCN [compound 8] | 38.086 | 22.428 | 6.244
7 | CCCCCCCCCCCCCCCCN(CCCCCCCCCCCCCCCC)[C@@H](CO)C(=O)NCCN [compound 3] | 18.255 | 66.096 | 4.049
8 | CCCCCCCCCCCCCC[N+](C)(CCCCCCCCCCCCCC)[C@@H](CO)C(=O)NCCCN [compound 32] | 225.268 | 447.443 | 2.075
9 | CCCCCCCCCCCCCCCC[N+](C)(CCCCCCCCCCCCCCCC)[C@@H](CO)C(=O)NCCCCCCN [compound 48] | 73.318 | 96.148 | 62.022
10 | CCCCCCCCCCCCCCCC[N+](C)(CCCCCCCCCCCCCCCC)[C@@H](CO)C(=O)NCCCCCN [compound 43] | 169.621 | 222.652 | 6.944
11 | CCCCCCCCCCCCCC[N+](C)(CCCCCCCCCCCCCC)[C@@H](CO)C(=O)NCCN [compound 27] | 196.400 | 311.891 | 21.934
12 | CCCCCCCCCCCC[N+](C)(CCCCCCCCCCCC)[C@@H](CO)C(=O)NCCCCCN [compound 41] | 1.535 | 923 | 946
13 | CCCCCCCCCCCCN(CCCCCCCCCCCC)[C@@H](CO)C(=O)NCCN [compound 1] | 172.116 | 264.581 | 211.937
14 | CCCCCCCCCCCCCCCC[N+](C)(CCCCCCCCCCCCCCCC)[C@@H](CO)C(=O)NCCCN [compound 33] | 201.586 | 372.446 | 49.603
15 | CCCCCCCCCCCCCCCCCCN(CCCCCCCCCCCCCCCCCC)[C@@H](CO)C(=O)NCCCN [compound 9] | 10.033 | 76.850 | 2.183
16 | CCCCCCCCCCCCCCCCCC[N+](C)(CCCCCCCCCCCCCCCCCC)[C@@H](CO)C(=O)NCCCCCCN [compound 49] | 7.563 | 10.245 | 2.177
17 | CCCCCCCCCCCCCCCCN(CCCCCCCCCCCCCCCC)[C@@H](CO)C(=O)NCCCCN [compound 13] | 30.635 | 42.604 | 15.287
18 | CCCCCCCCCCCCCC[N+](C)(CCCCCCCCCCCCCC)[C@@H](CO)C(=O)NCCCCCCN [compound 47] | 50.115 | 56.974 | 533
19 | CCCCCCCC/C=C\CCCCCCCCN(CCCCCCCC/C=C\CCCCCCCC)[C@@H](CO)C(=O)NCCCCCN [compound 20] | 26.482 | 67.308 | 31.897
20 | CCCCCCCCCCCC[N+](C)(CCCCCCCCCCCC)[C@@H](CO)C(=O)NCCCCN [compound 36] | 26.495 | 3.829 | 2.064
21 | CCCCCCCCCCCC[N+](C)(CCCCCCCCCCCC)[C@@H](CO)C(=O)NCCN [compound 26] | 846 | 16.919 | 3.196
22 | CCCCCCCCCCCCCCCCCCN(CCCCCCCCCCCCCCCCCC)[C@@H](CO)C(=O)NCCCCCN [compound 19] | 11.743 | 45.026 | 1.118
23 | CCCCCCCC/C=C\CCCCCCCC[N+](C)(CCCCCCCC/C=C\CCCCCCCC)[C@@H](CO)C(=O)NCCCN [compound 35] | 43.284 | 56.949 | 34.736
24 | CCCCCCCC/C=C\CCCCCCCC[N+](C)(CCCCCCCC/C=C\CCCCCCCC)[C@@H](CO)C(=O)NCCCCN [compound 40] | 48.692 | 119.285 | 12.263
